Data published in PubChem BioAssay (NCI).
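Compound exposure: 48 hours, 5 concentrations, 96-well plates. Abbreviation: GI50, concentration required for 50% inhibition of growth. TGI is the concentration that stops growth completely.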

Columns and labels:
Assay in all cases: inhibition of tumour cell growth, NCI panel, 48 h
[1] = tested on: HCT-15 colon
[2] = tested on: IGROV1 ovarian
[3] = tested on: NCI-H226 lung
[4] = tested on: OVCAR-8 ovarian
[5] = tested on: SK-OV-3 ovarian
[6] = tested on: SNB-75 CNS
[7] = tested on: UACC-62 melanoma
[8] = tested on: RPMI-8226 leukemia
[9] = tested on: DU-145 prostate
[10] = tested on: MDA-MB-231 breast

Row | Compound | TGI [1] | TGI [2] | TGI [3] | TGI [4] | TGI [5] | TGI [6] | TGI [7] | TGI [8] | GI50 [9] | TGI [9] | GI50 [1] | GI50 [2] | GI50 [10] | TGI [10] | GI50 [3] | GI50 [8] | GI50 [5] | GI50 [6] | GI50 [7] | GI50 [4]
1 | CC(/C(=N/NC(=O)C(N)=O)c1c(Cl)ccc(Cl)c1O)C1(O)C(=O)Nc2ccccc21 (stereo not drawn) | > 100 µM | > 100 µM | > 100 µM | > 100 µM | > 100 µM | > 100 µM | > 100 µM | – | – | – | – | – | – | – | – | – | – | – | – | –
2 | OCC(O)C(OC1OC(CO)C(O)C(O)C1O)c1nn(-c2ccccc2)c2nc3cc(Cl)c(Cl)cc3cc12 (stereo not drawn) | > 100 µM | – | – | > 100 µM | > 100 µM | > 100 µM | > 100 µM | > 100 µM | – | – | – | – | – | – | – | – | – | – | – | –
3 | CCN(CCNc1ccc(C)c2sc3cc(Cl)ccc3c(=O)c12)CC(C)O (stereo not drawn) | 5.85 µM | 2.78 µM | 4.72 µM | – | 3.44 µM | 3.57 µM | 3.44 µM | 3.67 µM | 3.87 µM | 18.2 µM | 2.33 µM | 1.25 µM | 1.99 µM | 4.17 µM | 2.18 µM | 1.71 µM | 1.76 µM | 1.75 µM | 1.82 µM | –
4 | Cc1ccc(/C=C2/SC(Nc3nc(-c4nc(NC5=NC(=O)/C(=C\c6ccc(C)cc6)S5)sc4C)c(C)s3)=NC2=O)cc1 | > 19.6 µM | > 50 µM | > 30.4 µM | > 31.6 µM | – | – | 1.71 µM | > 15 µM | 0.531 µM | > 9.82 µM | 0.347 µM | 7.29 µM | 1.36 µM | 19.9 µM | 2.32 µM | 1.27 µM | – | – | 0.0759 µM | 1.66 µM
5 | CS(=O)(=O)OCCn1cnc2nc(NC(=O)c3ccccc3)[nH]c(=O)c21 | > 100 µM | > 100 µM | > 100 µM | > 100 µM | > 100 µM | > 100 µM | > 100 µM | > 100 µM | – | – | – | – | – | – | – | – | – | – | – | –
6 | CC(=O)Nc1ccccc1C=C1c2ccccc2-c2ccccc21 | > 100 µM | > 100 µM | 66.8 µM | 47.4 µM | – | 33.7 µM | > 100 µM | > 100 µM | – | > 100 µM | – | – | – | 58.2 µM | – | – | – | – | – | –
7 | COCC1N=C(c2cc(OC)c(OC)c(OC)c2-c2cc3c(cc2C2OCCCO2)OCO3)O[C@H]1c1ccccc1 (stereo partly drawn) | > 100 µM | > 100 µM | > 100 µM | > 100 µM | > 100 µM | > 100 µM | > 100 µM | > 100 µM | – | – | – | – | – | – | – | – | – | – | – | –
8 | Cc1cccc(NC(=O)c2cc3cc(N=Nc4ccccc4Cl)ccc3oc2=O)c1 | > 100 µM | > 100 µM | 56.2 µM | > 100 µM | > 100 µM | > 100 µM | 42.5 µM | > 100 µM | – | – | – | – | – | – | – | – | – | – | – | –
9 | CCCCCCCCC(=O)N(C)C1C2CN3CCC(O2)C13 (stereo not drawn) | > 100 µM | > 100 µM | > 100 µM | – | > 100 µM | > 100 µM | > 100 µM | > 100 µM | – | – | – | – | – | – | – | – | – | – | – | –
10 | O=c1[nH]nc2ccccc2c1Cl | 25.3 µM | 28.5 µM | 52.8 µM | 54.3 µM | 33.5 µM | 47.1 µM | 25.6 µM | 8.87 µM | – | – | – | – | – | – | – | – | – | – | – | –
11 | O=c1c2cccc3cccc(c4oc5c6cccc7cccc(c(=O)c5c14)c76)c32 | 16.9 µM | 28.7 µM | > 31.6 µM | 16.1 µM | > 31.6 µM | 21.7 µM | 17.6 µM | 24.1 µM | – | – | – | – | – | – | – | – | – | – | – | –
